This is an account of results in US8697667B2, “Cyclodextrin-modified polyamines for delivery of therapeutic molecules” (Rutgers, The State University of New Jersey, priority 2010, dated 2014).

Data set [1] concerns glioblastoma cells. As to the kind of experiment: Annexin-V/Propidium Iodide apoptosis assay. The class given is cell-based. As to conditions: combined with siRNA against EGFRvIII (200 nM), polymer 100 μM; SAHA 5 μM, erlotinib 30 μM; versus individual treatments. From the text:
Cells were harvested by trypsinization and stained using an Annexin V FITC Apoptosis Detection kit (Roche, Cambridge, Mass.) according to the manufacturer's protocol. The stained cells were immediately analyzed by flow cytometry (FACScan; Becton Dickinson, Franklin Lake, N.J.). Early apoptotic cells with exposed phosphatidylserine but intact cell membranes bound to Annexin V-FITC but excluded propidium iodide. Cells in necrotic or late apoptotic stages were labeled with both Annexin V-FITC and propidium iodide.

Data set [2] in a line: Aqueous solubility. The class given is physicochemical.

Like-named read-outs stand apart in the source and are kept apart here. A value given as a limit tells only on which side of the number the result lay.

For `O=C(CCCCCCC(=O)Nc1ccccc1)NO` [SAHA, suberoylanilide hydroxamic acid], the “induction of apoptosis (Annexin-V-FITC-positive cells)” value in data set [1] is recorded as “greater induction of apoptosis”. `C#Cc1cccc(Nc2ncnc3cc(OCCOC)c(OCCOC)cc23)c1` [erlotinib, N-(3-ethynylphenyl)-6,7-bis(2-methoxyethoxy)quinazolin-4-amine] yielded an aqueous solubility in data set [2] (drug loaded into / complexed with β-CD cavity) of 178 mg/100 mL. The “induction of apoptosis (Annexin-V-FITC-positive cells)” value in data set [1] was “cooperative induction of apoptosis”. Take `OC[C@H]1O[C@@H]2O[C@H]3[C@H](O)[C@@H](O)[C@@H](O[C@H]4[C@H](O)[C@@H](O)[C@@H](O[C@H]5[C@H](O)[C@@H](O)[C@@H](O[C@H]6[C@H](O)[C@@H](O)[C@@H](O[C@H]7[C@H](O)[C@@H](O)[C@@H](O[C@H]8[C@H](O)[C@@H](O)[C@@H](O[C@H]1[C@H](O)[C@H]2O)O[C@@H]8CO)O[C@@H]7CO)O[C@@H]6CO)O[C@@H]5CO)O[C@@H]4CO)O[C@@H]3CO` [CD, β-cyclodextrin]: in data set [2], the aqueous solubility is less than 1.8 g/100 mL.
